The NIST ThermoML archive (doi:10.1016/j.jct.2004.11.016)
± gives the expanded uncertainty stated by the source.

Experiment: xn = mol fraction of the nth substance listed
Settings: Liquid; for mass density: 101.3 kPa; for viscosity: 101 kPa

CN(C)CCO [2-(N,N-dimethylamino)ethanol] + O
Settings	mass density [kg/m3]	viscosity [mPa·s]
293.15 K, x1 = 0.0121	996.588 ± 0.52	–
293.15 K, x1 = 0.0218	995.236 ± 0.53	–
293.15 K, x1 = 0.0252	994.947 ± 0.53	–
293.15 K, x1 = 0.0359	994.033 ± 0.53	–
293.15 K, x1 = 0.0617	992.027 ± 0.55	–
293.15 K, x1 = 0.1009	988.909 ± 0.57	–
293.15 K, x1 = 0.2017	973.822 ± 0.67	–
293.15 K, x1 = 0.3033	956.823 ± 0.79	–
293.15 K, x1 = 0.4051	941.071 ± 0.9	–
293.15 K, x1 = 0.5077	927.808 ± 0.98	–
293.15 K, x1 = 0.6099	916.51 ± 1.1	–
293.15 K, x1 = 0.7652	903.034 ± 1.1	–
293.15 K, x1 = 0.895	894.185 ± 1.2	–
293.15 K, x1 = 1	887.816 ± 1.2	–
298.15 K, x1 = 0.0121	995.282 ± 0.53	–
298.15 K, x1 = 0.0218	993.748 ± 0.54	–
298.15 K, x1 = 0.0252	993.401 ± 0.54	–
298.15 K, x1 = 0.0359	992.24 ± 0.55	–
298.15 K, x1 = 0.0617	989.74 ± 0.56	–
298.15 K, x1 = 0.1009	985.747 ± 0.59	–
298.15 K, x1 = 0.2017	969.911 ± 0.7	–
298.15 K, x1 = 0.3033	952.768 ± 0.82	–
298.15 K, x1 = 0.4051	936.991 ± 0.92	–
298.15 K, x1 = 0.5077	923.722 ± 1	–
298.15 K, x1 = 0.6099	912.41 ± 1.1	–
298.15 K, x1 = 0.7652	898.903 ± 1.2	–
298.15 K, x1 = 0.895	889.991 ± 1.2	–
298.15 K, x1 = 1	883.578 ± 1.2	–
303.15 K, x1 = 0.0121	993.747 ± 0.54	–
303.15 K, x1 = 0.0218	992.024 ± 0.55	–
303.15 K, x1 = 0.0252	991.591 ± 0.55	–
303.15 K, x1 = 0.0359	990.239 ± 0.56	–
303.15 K, x1 = 0.0617	987.103 ± 0.58	–
303.15 K, x1 = 0.1009	982.49 ± 0.61	–
303.15 K, x1 = 0.2017	965.929 ± 0.72	–
303.15 K, x1 = 0.3033	948.646 ± 0.84	–
303.15 K, x1 = 0.4051	932.844 ± 0.95	–
303.15 K, x1 = 0.5077	919.567 ± 1	–
303.15 K, x1 = 0.6099	908.259 ± 1.1	–
303.15 K, x1 = 0.7652	894.723 ± 1.2	–
303.15 K, x1 = 0.895	885.767 ± 1.2	–
303.15 K, x1 = 1	879.315 ± 1.3	–
308.15 K, x1 = 0.0121	991.994 ± 0.55	–
308.15 K, x1 = 0.0218	990.035 ± 0.56	–
308.15 K, x1 = 0.0252	989.243 ± 0.56	–
308.15 K, x1 = 0.0359	988.048 ± 0.57	–
308.15 K, x1 = 0.0617	984.421 ± 0.59	–
308.15 K, x1 = 0.1009	979.144 ± 0.63	–
308.15 K, x1 = 0.2017	961.896 ± 0.75	–
308.15 K, x1 = 0.3033	944.47 ± 0.87	–
308.15 K, x1 = 0.4051	928.641 ± 0.97	–
308.15 K, x1 = 0.5077	915.367 ± 1.1	–
308.15 K, x1 = 0.6099	904.055 ± 1.1	–
308.15 K, x1 = 0.7652	890.503 ± 1.2	–
308.15 K, x1 = 0.895	881.507 ± 1.3	–
308.15 K, x1 = 1	875.017 ± 1.3	–
313.15 K, x1 = 0.0121	989.83 ± 0.56	–
313.15 K, x1 = 0.0218	987.566 ± 0.57	–
313.15 K, x1 = 0.0252	986.624 ± 0.58	–
313.15 K, x1 = 0.0359	985.713 ± 0.59	–
313.15 K, x1 = 0.0617	981.605 ± 0.61	–
313.15 K, x1 = 0.1009	975.714 ± 0.65	2.669 ± 0.039
313.15 K, x1 = 0.2017	957.808 ± 0.78	5.071 ± 0.073
313.15 K, x1 = 0.3033	940.237 ± 0.9	6.593 ± 0.09
313.15 K, x1 = 0.4051	924.379 ± 1	6.58 ± 0.09
313.15 K, x1 = 0.5077	911.114 ± 1.1	5.885 ± 0.083
313.15 K, x1 = 0.6099	899.803 ± 1.2	4.784 ± 0.071
313.15 K, x1 = 0.7652	886.233 ± 1.2	3.467 ± 0.054
313.15 K, x1 = 0.895	877.213 ± 1.3	2.72 ± 0.044
313.15 K, x1 = 1	870.686 ± 1.3	2.238 ± 0.033
318.15 K, x1 = 0.0121	986.678 ± 0.58	–
318.15 K, x1 = 0.0218	985.311 ± 0.59	–
318.15 K, x1 = 0.0359	983.206 ± 0.6	–
318.15 K, x1 = 0.0617	978.661 ± 0.63	–
318.15 K, x1 = 0.1009	972.197 ± 0.68	–
318.15 K, x1 = 0.2017	953.663 ± 0.8	–
318.15 K, x1 = 0.3033	935.946 ± 0.92	–
318.15 K, x1 = 0.4051	920.062 ± 1	–
318.15 K, x1 = 0.5077	906.806 ± 1.1	–
318.15 K, x1 = 0.6099	895.501 ± 1.2	–
318.15 K, x1 = 0.7652	881.923 ± 1.3	–
318.15 K, x1 = 0.895	872.876 ± 1.3	–
318.15 K, x1 = 1	866.316 ± 1.3	–
323.15 K, x1 = 0.0617	975.591 ± 0.65	–
323.15 K, x1 = 0.1009	968.595 ± 0.7	1.957 ± 0.029
323.15 K, x1 = 0.2017	949.451 ± 0.83	3.487 ± 0.051
323.15 K, x1 = 0.3033	931.598 ± 0.95	4.435 ± 0.063
323.15 K, x1 = 0.4051	915.685 ± 1.1	4.433 ± 0.063
323.15 K, x1 = 0.5077	902.436 ± 1.1	4.044 ± 0.058
323.15 K, x1 = 0.6099	891.144 ± 1.2	3.393 ± 0.051
323.15 K, x1 = 0.7652	877.562 ± 1.3	2.573 ± 0.04
323.15 K, x1 = 0.895	868.495 ± 1.3	2.089 ± 0.033
323.15 K, x1 = 1	861.902 ± 1.4	1.756 ± 0.026
328.15 K, x1 = 0.0617	972.399 ± 0.67	–
328.15 K, x1 = 0.1009	964.905 ± 0.72	–
328.15 K, x1 = 0.2017	945.194 ± 0.85	–
328.15 K, x1 = 0.3033	927.188 ± 0.97	–
328.15 K, x1 = 0.4051	911.247 ± 1.1	–
328.15 K, x1 = 0.5077	898.016 ± 1.2	–
328.15 K, x1 = 0.6099	886.733 ± 1.2	–
328.15 K, x1 = 0.7652	873.15 ± 1.3	–
328.15 K, x1 = 0.895	864.065 ± 1.4	–
328.15 K, x1 = 1	857.46 ± 1.4	–
333.15 K, x1 = 0.0617	969.09 ± 0.69	–
333.15 K, x1 = 0.1009	961.13 ± 0.74	1.499 ± 0.022
333.15 K, x1 = 0.2017	940.864 ± 0.88	2.511 ± 0.037
333.15 K, x1 = 0.3033	922.714 ± 1	3.091 ± 0.044
333.15 K, x1 = 0.4051	906.75 ± 1.1	3.126 ± 0.045
333.15 K, x1 = 0.5077	893.531 ± 1.2	2.897 ± 0.042
333.15 K, x1 = 0.6099	882.262 ± 1.3	2.503 ± 0.037
333.15 K, x1 = 0.7652	868.68 ± 1.3	1.969 ± 0.03
333.15 K, x1 = 0.895	859.595 ± 1.4	1.641 ± 0.026
333.15 K, x1 = 1	852.965 ± 1.4	1.413 ± 0.021
338.15 K, x1 = 0.0617	965.663 ± 0.71	–
338.15 K, x1 = 0.1009	957.253 ± 0.77	–
338.15 K, x1 = 0.2017	936.472 ± 0.91	–
338.15 K, x1 = 0.3033	918.174 ± 1	–
338.15 K, x1 = 0.4051	902.184 ± 1.1	–
338.15 K, x1 = 0.5077	888.98 ± 1.2	–
338.15 K, x1 = 0.6099	877.726 ± 1.3	–
338.15 K, x1 = 0.7652	864.16 ± 1.4	–
338.15 K, x1 = 0.895	855.072 ± 1.4	–
338.15 K, x1 = 1	848.423 ± 1.5	–
343.15 K, x1 = 0.0617	961.835 ± 0.74	–
343.15 K, x1 = 0.1009	953.308 ± 0.8	1.186 ± 0.018
343.15 K, x1 = 0.2017	932.014 ± 0.94	1.896 ± 0.028
343.15 K, x1 = 0.3033	913.564 ± 1.1	2.27 ± 0.033
343.15 K, x1 = 0.4051	897.541 ± 1.2	2.302 ± 0.033
343.15 K, x1 = 0.5077	884.364 ± 1.2	2.152 ± 0.031
343.15 K, x1 = 0.6099	873.127 ± 1.3	1.909 ± 0.028
343.15 K, x1 = 0.7652	859.582 ± 1.4	1.551 ± 0.024
343.15 K, x1 = 0.895	850.491 ± 1.5	1.317 ± 0.021
343.15 K, x1 = 1	843.844 ± 1.5	1.156 ± 0.017
348.15 K, x1 = 0.0617	957.228 ± 0.77	–
348.15 K, x1 = 0.1009	949.273 ± 0.82	–
348.15 K, x1 = 0.2017	927.488 ± 0.97	–
348.15 K, x1 = 0.3033	908.868 ± 1.1	–
348.15 K, x1 = 0.4051	892.846 ± 1.2	–
348.15 K, x1 = 0.5077	879.677 ± 1.3	–
348.15 K, x1 = 0.6099	868.45 ± 1.3	–
348.15 K, x1 = 0.7652	854.939 ± 1.4	–
348.15 K, x1 = 0.895	845.858 ± 1.5	–
348.15 K, x1 = 1	839.205 ± 1.5	–
353.15 K, x1 = 0.0617	952.666 ± 0.8	–
353.15 K, x1 = 0.1009	945.149 ± 0.85	0.966 ± 0.015
353.15 K, x1 = 0.2017	922.889 ± 1	1.47 ± 0.022
353.15 K, x1 = 0.3033	904.132 ± 1.1	1.724 ± 0.025
353.15 K, x1 = 0.4051	888.074 ± 1.2	1.75 ± 0.026
353.15 K, x1 = 0.5077	874.926 ± 1.3	1.65 ± 0.024
353.15 K, x1 = 0.6099	863.729 ± 1.4	1.493 ± 0.022
353.15 K, x1 = 0.7652	850.236 ± 1.5	1.247 ± 0.019
353.15 K, x1 = 0.895	841.163 ± 1.5	1.078 ± 0.017
353.15 K, x1 = 1	834.521 ± 1.5	0.963 ± 0.015
358.15 K, x1 = 0.0617	950.878 ± 0.81	–
358.15 K, x1 = 0.1009	940.935 ± 0.88	–
358.15 K, x1 = 0.2017	918.216 ± 1	–
358.15 K, x1 = 0.3033	899.314 ± 1.2	–
358.15 K, x1 = 0.4051	883.233 ± 1.3	–
358.15 K, x1 = 0.5077	870.101 ± 1.3	–
358.15 K, x1 = 0.6099	858.928 ± 1.4	–
358.15 K, x1 = 0.7652	845.484 ± 1.5	–
358.15 K, x1 = 0.895	836.414 ± 1.5	–
358.15 K, x1 = 1	829.779 ± 1.6	–
363.15 K, x1 = 0.0617	946.398 ± 0.84	–
363.15 K, x1 = 0.1009	936.638 ± 0.9	–
363.15 K, x1 = 0.2017	913.472 ± 1.1	–
363.15 K, x1 = 0.3033	894.425 ± 1.2	–
363.15 K, x1 = 0.4051	878.314 ± 1.3	–
363.15 K, x1 = 0.5077	865.197 ± 1.4	–
363.15 K, x1 = 0.6099	854.052 ± 1.4	–
363.15 K, x1 = 0.7652	840.646 ± 1.5	–
363.15 K, x1 = 0.895	831.596 ± 1.6	–
363.15 K, x1 = 1	824.969 ± 1.6	–
